The subject of one assay is Huh7 cells containing HCV replicons with an integrated luciferase reporter gene. In words: HCV Replicon Assay (luciferase reporter). The class given is cell-based. Conditions: Hepatitis C virus, Huh-7, 48 h, read-out: EC50 nM. The protocol:
Huh7 cells containing HCV replicons with an integrated luciferase reporter gene are maintained at 37° C. in 5% CO2 in Dulbecco's modified Eagle's medium (DMEM; Mediatech, Herndon, Va.) containing 10% heat-inactivated fetal bovine serum (FBS; Mediatech, Herndon, Va.), 2 mM L-glutamine (Cambrex Bioscience, Walkersville, Md.), 1% non essential amino acids (Lonza, Walkersville, Md.), 50 IU/mL penicillin (Mediatech, Herndon, Va.), […] streptomycin (Mediatech, Herndon, Va.) and 0.5 mg/mL G418 (Promega, Madison, Wis.). Cells are sub-divided 1:3 or 4 every 2-3 days.
24 h prior to the assay, Huh7 cells containing sub-genomic HCV replicons are collected, counted, and plated in Nunclon 96-well tissue culture plates (ThermoFisher, Rochester, N.Y.) at 5000 cells/well in […] standard maintenance medium (above) and incubated in the conditions above. To initiate the assay, culture medium is removed, and replaced with […] maintenance media lacking G418. Test compounds are serially diluted three-fold in dimethyl sulfoxide (DMSO) in two duplicate rows for each EC50 determination. These compound solutions are diluted ten-fold in DMEM lacking serum and G418. […] of these compound solutions in media are added to duplicate tissue culture plates. The final volume is 100 μL with a DMSO concentration of 1%. Compound concentrations are adjusted to appropriately define a dose response curve. Typical dilution series range from […] to 1.69 nM final concentrations to 1 nM to 16.9 fM final. Plates are incubated at 37° C. for approximately 48 hr.
Following incubation, media is removed from one of the two duplicate plates and replicon-reporter luciferase activity is measured using a Bright-Glo luciferase assay kit (Promega, Madison, Wis.) according to manufacturer's instructions. Semi-log plots of luciferase activity versus the logarithm of compound concentration are fit to a 4-parameter logistic function using XLfit software (IDBS Inc., Guildford, UK) to determine EC50.
(Replicon systems follow genome replication, usually without infectious particles.)
With `COC(=O)N[C@H](C(=O)N1CCC[C@H]1C(=O)Nc1ccc(NC(=O)c2ccc(NC(=O)[C@@H]3CCCN3C(=O)[C@@H](NC(=O)OC)C(C)C)cc2)cc1)C(C)C` [Compound 102], the EC50 (as a rule, the concentration that produces a half-maximal response) was 10 to 100 nM.
Same read-out and setting: as for `COC(=O)N[C@H](C(=O)N1CCC[C@H]1C(=O)Nc1ccc(NC(=O)c2ccc(NC(=O)[C@@H]3CCCN3C(=O)Cc3ccccc3)cc2)cc1)C(C)C` [Compound 103], the figure is 10 to 100 nM; as for `COC(=O)N[C@H](C(=O)N1CCC[C@H]1C(=O)Nc1ccc(C(=O)Nc2ccc(NC(=O)[C@@H]3CCCN3C(=O)Cc3ccccc3)cc2)cc1)C(C)C` [Compound 104], 10 to 100 nM.
Still for that read-out and setting: for `O=C(Nc1ccc(-c2ccc3nc(NC(=O)[C@@H]4CCCN4C(=O)Cc4ccccc4)ccc3c2)cn1)[C@@H]1CCCN1C(=O)Cc1ccccc1` [Compound 216] the value was under 10 nM; for `O=C(Cc1ccccc1)N1CCC[C@H]1c1ncc(-c2ccc(-c3ccc(-c4cnc([C@@H]5CCCN5C(=O)Cc5ccccc5)[nH]4)c4ccccc34)cc2)[nH]1` [Compound 302], under 10 nM.
On the same count and under the same terms, as for `COC(=O)N[C@H](C(=O)N1CCC[C@H]1c1ncc(-c2ccc(-c3ccc(-c4cnc([C@@H]5CCCN5C(=O)Cc5ccccc5)[nH]4)c4ccccc34)cc2)[nH]1)C(C)C` [Compound 307], the figure is under 10 nM.

Staying with this assay, now noted: Hepatitis C virus, Huh-7; Huh7 HCV replicon cells, luciferase activity, approximately 48 hr incubation; read-out: EC50.
As to `O=C(Nc1ccc(NC(=O)[C@@H]2CCCN2C(=O)Cc2ccccc2)cc1)c1ccc(NC(=O)[C@@H]2CCCN2C(=O)Cc2ccccc2)cc1` [Compound 101], the EC50 lay within 10 to 100 nM.
The same measure, in the same setting: as for `COC(=O)N[C@H](C(=O)N1CCC[C@H]1C(=O)Nc1ccc(-c2ccc3cc(NC(=O)[C@@H]4CCCN4C(=O)[C@@H](NC(=O)OC)C(C)C)ccc3c2)cc1)C(C)C` [Compound 201], the figure is under 10 nM; as for `COC(=O)N[C@H](C(=O)N1CCC[C@H]1C(=O)Nc1ccc2cc(-c3ccc(NC(=O)[C@@H]4CCCN4C(=O)Cc4ccccc4)cc3)ccc2c1)C(C)C` [Compound 203], under 10 nM.
Regarding `COC(=O)N[C@H](C(=O)N1CCC[C@H]1C(=O)Nc1ccc2cc(NC(=O)[C@@H]3CCCN3C(=O)[C@@H](NC(=O)OC)C(C)C)ccc2c1)C(C)C` [Compound 204], the 50% effective concentration (EC50) fell in the range of 10 to 100 nM.
`COC(=O)N[C@H](C(=O)N1CCC[C@H]1C(=O)Nc1ccc2cc(NC(=O)[C@@H]3CCCN3C(=O)Cc3ccccc3)ccc2c1)C(C)C` [Compound 205]: the EC50 was over 100 nM.
Same read-out and setting: as for `O=C(Nc1ccc2cc(-c3ccc(NC(=O)[C@@H]4CCCN4C(=O)Cc4ccccc4)nc3)ccc2c1)[C@@H]1CCCN1C(=O)Cc1ccccc1` [Compound 206], the figure is under 10 nM; as for `COC(=O)N[C@H](C(=O)N1CCC[C@H]1C(=O)Nc1ccc2cc(-c3ccc(NC(=O)[C@@H]4CCCN4C(=O)[C@@H](NC(=O)OC)C(C)C)nc3)ccc2c1)C(C)C` [Compound 207], under 10 nM.
Same read-out and setting: as for `COC(=O)N[C@H](C(=O)N1CCC[C@H]1C(=O)Nc1ccc(-c2ccc3cc(NC(=O)[C@@H]4CCCN4C(=O)Cc4ccccc4)ccc3c2)cn1)C(C)C` [Compound 208], the figure is under 10 nM; as for `COC(=O)N[C@H](C(=O)N1CCC[C@H]1C(=O)Nc1ccc2cc(-c3ccc(NC(=O)[C@@H]4CCCN4C(=O)Cc4ccccc4)nc3)ccc2c1)C(C)C` [Compound 209], under 10 nM.
Turning to `O=C(Nc1ccc2cc(NC(=O)[C@@H]3CCCN3C(=O)Cc3ccccc3)ccc2c1)[C@@H]1CCCN1C(=O)Cc1ccccc1` [Compound 210], the concentration for a half-maximal effect (EC50) is over 100 nM.
On the same count and under the same terms, for `O=C(Nc1ccc(-c2ccc3cc(NC(=O)[C@@H]4CCCN4C(=O)Cc4ccccc4)ccc3c2)cc1)[C@@H]1CCCN1C(=O)Cc1ccccc1` [Compound 211] the value was under 10 nM; for `COC(=O)N[C@H](C(=O)N1CCC[C@H]1C(=O)Nc1ccc2cc(-c3cnc(NC(=O)[C@@H]4CCCN4C(=O)[C@@H](NC(=O)OC)C(C)C)nc3)ccc2n1)C(C)C` [Compound 212], under 10 nM.
Same read-out and setting: for `COC(=O)N[C@H](C(=O)N1CCC[C@H]1C(=O)Nc1ncc(-c2ccc3nc(NC(=O)[C@@H]4CCCN4C(=O)Cc4ccccc4)ccc3c2)cn1)C(C)C` [Compound 214] the value was 10 to 100 nM; for `COC(=O)N[C@H](C(=O)N1CCC[C@H]1C(=O)Nc1ccc(-c2ccc3nc(NC(=O)[C@@H]4CCCN4C(=O)[C@@H](NC(=O)OC)C(C)C)ccc3c2)cn1)C(C)C` [Compound 217], under 10 nM.
With `COC(=O)N[C@H](C(=O)N1CCC[C@H]1C(=O)Nc1ccc2cc(-c3cnc(NC(=O)[C@@H]4CCCN4C(=O)[C@@H](NC(=O)OC)C(C)C)nc3)ccc2c1)C(C)C` [Compound 221], the EC50 was under 10 nM.
Regarding `COC(=O)N[C@H](C(=O)N1CCC[C@H]1c1nc(-c2ccc(-c3ccc4cc(-c5c[nH]c([C@]6(C)CCCN6C(=O)[C@@H](NC(=O)OC)C(C)C)n5)ccc4c3)cc2)c[nH]1)C(C)C` [Compound 222], the EC50 is under 10 nM.
Turning to `COC(=O)N[C@H](C(=O)N1CCC[C@H]1c1ncc(-c2ccc(-c3ccc(-c4cnc([C@@H]5CCCN5C(=O)[C@@H](NC(=O)OC)C(C)C)[nH]4)c4ccccc34)cc2)[nH]1)C(C)C` [Compound 301], the EC50 was under 10 nM.
With `COC(=O)N[C@H](C(=O)N1CCC[C@H]1C(=O)OCC(=O)c1ccc(-c2ccc(C(=O)COC(=O)[C@@H]3CCCN3C(=O)[C@@H](NC(=O)OC)C(C)C)c3c2CCCC3)cc1)C(C)C` [Compound 303], the EC50 is 10 to 100 nM.
Still for that read-out and setting: as for `COC(=O)NC(C(=O)N1CCC[C@H]1c1nc(-c2ccc(-c3ccc(-c4c[nH]c([C@@H]5CCCN5C(=O)[C@@H](NC(=O)OC)C(C)C)n4)c4c3CCCC4)cc2)c[nH]1)C(C)C` (some centres unmarked) [Compound 304], the figure is under 10 nM; as for `COC(=O)N[C@H](C(=O)N1CCC[C@H]1C(=O)OCC(=O)c1ccc(-c2ccc(C(=O)COC(=O)[C@@H]3CCCN3C(=O)[C@@H](NC(=O)OC)C(C)C)c3c2CCC3)cc1)C(C)C` [Compound 305], over 100 nM.
Take `COC(=O)N[C@H](C(=O)N1CCC[C@H]1c1nc(-c2ccc(-c3ccc(-c4c[nH]c([C@@H]5CCCN5C(=O)[C@@H](NC(=O)OC)C(C)C)n4)c4c3CCC4)cc2)c[nH]1)C(C)C` [Compound 306]: the EC50 was under 10 nM.
Take `COC(=O)N[C@H](C(=O)N1CCC[C@H]1c1nc(-c2ccc(-c3ccc(-c4c[nH]c([C@@H]5CCCN5C(=O)Cc5ccccc5)n4)cc3)c3ccccc23)c[nH]1)C(C)C` [Compound 308]: the EC50 was under 10 nM.
The same measure, in the same setting: for `COC(=O)N[C@H](C(=O)N1CCC[C@H]1c1ncc(-c2ccc(-c3ccc(-c4cnc([C@@H]5CCCN5C(=O)[C@@H](NC(=O)OC)C(C)C)[nH]4)c4c3OCCO4)cc2)[nH]1)C(C)C` [Compound 309] the value was under 10 nM.
As for `COC(=O)N[C@H](C(=O)N1CCC[C@H]1c1nc(-c2ccc(-c3ccc(-c4c[nH]c([C@@H]5CCCN5C(=O)[C@@H](NC(=O)OC)C(C)C)n4)c4sc(C)nc34)cc2)c[nH]1)C(C)C` [Compound 310], the 50% effective concentration (EC50) is under 10 nM.
Turning to `COC(=O)N[C@H](C(=O)N1CCC[C@H]1c1nc(-c2ccc(-c3ccc(-c4c[nH]c([C@@H]5CCCN5C(=O)[C@@H](NC(=O)OC)C(C)C)n4)c4sccc34)cc2)c[nH]1)C(C)C` [Compound 311], the EC50 was under 10 nM.
In the case of `COC(=O)N[C@H](C(=O)N1CCC[C@H]1c1nc(-c2ccc(-c3ccc(-c4c[nH]c([C@@H]5CCCN5C(=O)[C@@H](NC(=O)OC)C(C)C)n4)c4c3OCO4)cc2)c[nH]1)C(C)C` [Compound 312], the 50% effective concentration (EC50) is under 10 nM.
Same read-out and setting: as for `COC(=O)N[C@H](C(=O)N1CCC[C@H]1c1nc(-c2ccc(-c3ccc(-c4c[nH]c([C@@H]5CCCN5C(=O)[C@@H](NC(=O)OC)C(C)C)n4)c4cccnc34)cc2)c[nH]1)C(C)C` [Compound 314], the figure is under 10 nM.
Still for that read-out and setting: as for `COC(=O)N[C@H](C(=O)N1CCC[C@H]1c1nc(-c2ccc(-c3ccc(-c4c[nH]c([C@@H]5CCCN5C(=O)[C@@H](NC(=O)OC)C(C)C)n4)c4ncccc34)cc2)c[nH]1)C(C)C` [Compound 315], the figure is under 10 nM; as for `COC(=O)N[C@H](C(=O)N1CCC[C@H]1c1nc(-c2ccc(-c3ccc(-c4c[nH]c([C@@H]5CCCN5C(=O)[C@@H](NC(=O)OC)C(C)C)n4)c4oc(C)nc34)cc2)c[nH]1)C(C)C` [Compound 323], under 10 nM.
Still for that read-out and setting: as for `COC(=O)N[C@@H](C(=O)N1CCC[C@H]1c1ncc(-c2ccc(-c3ccc(-c4cnc([C@@H]5CCCN5C(=O)[C@H](NC(=O)OC)C(C)C)[nH]4)c4ccccc34)cc2)[nH]1)C(C)C` [Compound 324], the figure is under 10 nM.
`COC(=O)NCC(=O)N1CCC[C@H]1c1ncc(-c2ccc(-c3ccc(-c4cnc([C@@H]5CCCN5C(=O)CNC(=O)OC)[nH]4)c4ccccc34)cc2)[nH]1` [Compound 325]: the EC50 is under 10 nM.
Same read-out and setting: as for `O=S(=O)(Cc1ccccc1)N1CCC[C@H]1c1ncc(-c2ccc(-c3ccc(-c4cnc([C@@H]5CCCN5S(=O)(=O)Cc5ccccc5)[nH]4)c4ccccc34)cc2)[nH]1` [Compound 326], the figure is over 100 nM.
